Test results reported in the supplement of paper PMC12317010.
Counter-ions that a name gives are not always drawn.

Assay: collision cross section in nitrogen (drift tube, single-field); higher = larger gas-phase ion size
[1] = ion type: [M-H], ion source: ESI, ion mode: Negative
[2] = ion type: [M+Na], ion source: ESI, ion mode: Positive
[3] = ion type: [M+H], ion source: APCI, ion mode: Positive
[4] = ion type: [M+H], ion source: ESI, ion mode: Positive
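Note: chemical standards at 10 µM analysed by drift tube IMS-QTOF MS in about 3.95 torr nitrogen, mean of duplicate injections differing ≤1%, mass error below 10 ppm.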

Row | Compound | collision cross section in nitrogen [1] [Å²] | collision cross section in nitrogen [2] [Å²] | collision cross section in nitrogen [3] [Å²] | collision cross section in nitrogen [4] [Å²] | collision cross section in nitrogen (ion type: [M+], ion source: APCI, ion mode: Positive) [Å²]
1 | CCOc1ccc(C(C)(C)COCc2cccc(Oc3ccccc3)c2)cc1 [Etofenprox] |  | 191 |  |  | 
2 | COc1cc([C@@H]2c3cc4c(cc3[C@@H](O[C@@H]3O[C@@H]5CO[C@@H](C)O[C@H]5[C@H](O)[C@H]3O)[C@H]3COC(=O)[C@H]23)OCO4)cc(OC)c1O [Etoposide] | 239.5 | 249.8 |  |  | 
3 | CCOc1cc(C(C)(C)C)ccc1C1COC(c2c(F)cccc2F)=N1 (stereo not drawn) [Etoxazole] |  | 196 | 186.3 | 186.5 | 186.5
4 | C=CCc1ccc(OC(=O)Cc2ccccc2)c(OC)c1 [Eugenyl phenylacetate] |  | 175.7 |  |  | 
5 | N#Cc1ccc(C2CCCc3cncn32)cc1 (stereo not drawn) [Fadrozole] |  |  |  | 157.3 | 
6 | NC(N)=Nc1nc(CSCCC(N)=NS(N)(=O)=O)cs1 [Famotidine] | 169.4 | 174.3 | 168.7 | 168.9 | 
7 | CC1(c2ccc(Oc3ccccc3)cc2)OC(=O)N(Nc2ccccc2)C1=O (stereo not drawn) [Famoxadone] | 195.7 | 210.6 |  |  | 
8 | COP(=S)(OC)Oc1ccc(S(=O)(=O)N(C)C)cc1 [Famphur] |  | 173.8 | 174 |  | 
9 | CSC1=N[C@@](C)(c2ccccc2)C(=O)N1Nc1ccccc1 [Fenamidone] | 174.6 |  | 172.6 | 172.7 | 
10 | CCOP(=O)(NC(C)C)Oc1ccc(S(C)(=O)=O)c(C)c1 (stereo not drawn) [Fenamiphos sulfone] | 176.7 | 181.5 | 182.4 | 180.3 | 
11 | CCOP(=O)(NC(C)C)Oc1ccc(SC)c(C)c1 (stereo not drawn) [Fenamiphos] | 172.2 | 178.1 | 172.5 | 171.3 | 
12 | CC1(C(=O)Nc2ccc(O)c(Cl)c2Cl)CCCCC1 [Fenhexamid] | 172.6 |  | 166.7 | 166.4 | 
13 | CC1(C)C(C(=O)OC(C#N)c2cccc(Oc3ccccc3)c2)C1(C)C (stereo not drawn) [Fenpropathrin] |  | 186 |  |  | 
14 | CCOP(=S)(OCC)Oc1ccc(S(C)=O)cc1 (stereo not drawn) [Fensulfothion] |  | 169.7 |  | 174.5 | 
15 | COP(=S)(OC)Oc1ccc(SC)c(C)c1 [Fenthion] |  | 166.3 |  | 161.6 | 
16 | CC(C)(C)NC(=O)[C@H]1CC[C@H]2[C@@H]3CC[C@H]4NC(=O)C=C[C@]4(C)[C@H]3CC[C@]12C [Finasteride] | 198.1 | 226.8 | 204.7 | 203.3 | 

Continued, in another order:

Row | collision cross section in nitrogen [1] [Å²] | collision cross section in nitrogen [2] [Å²] | collision cross section in nitrogen [3] [Å²] | collision cross section in nitrogen [4] [Å²] | Compound | collision cross section in nitrogen (ion type: [M+], ion source: APCI, ion mode: Positive) [Å²]
17 | 136.7 |  |  |  | CCOC(=O)c1ccc(O)cc1 [Ethylparaben] | 
18 | 151 |  |  |  | CCC(C(=O)NC(N)=O)c1ccccc1 (stereo not drawn) [Ethylphenylacetylurea] | 
19 | 257.6 |  |  | 253.6 | CCN(Cc1cccc(S(=O)(=O)O)c1)c1ccc(C(=C2C=CC(=[N+](CC)Cc3cccc(S(=O)(=O)O)c3)C=C2)c2ccccc2S(=O)(=O)[O-])cc1 [FD&C Blue No. 1] | 
20 | 261.9 | 261.8 |  | 254.3 | CCN(Cc1cccc(S(=O)(=O)O)c1)c1ccc(C(=C2C=CC(=[N+](CC)Cc3cccc(S(=O)(=O)[O-])c3)C=C2)c2ccccc2)cc1 [FD&C Green No. 1] | 
21 | 260.3 | 260.8 |  | 259 | CCN(Cc1cccc(S(=O)(=O)O)c1)c1ccc(C(=C2C=CC(=[N+](CC)Cc3cccc(S(=O)(=O)O)c3)C=C2)c2ccc(O)cc2S(=O)(=O)[O-])cc1 [FD&C Green No. 3] | 
22 | 217.9 |  | 211.7 | 211.4 | O=C1OC2(c3ccccc31)c1cc(I)c(O)c(I)c1Oc1c2cc(I)c(O)c1I [FD&C Red 3] | 
23 | 208.6 |  |  |  | Cc1cc(C)c(S(=O)(=O)O)cc1N=Nc1cc(S(=O)(=O)O)c2ccccc2c1O [FD&C Red 4] | 
24 | 203.1 |  |  |  | O=S(=O)(O)c1ccc(N=Nc2c(O)ccc3cc(S(=O)(=O)O)ccc23)cc1 [FD&C Yellow 6] | 
25 |  |  | 175.1 | 174.8 | Cc1[nH]cnc1C[C@H]1CCc2c(C)c3ccccc3n2C1=O [Fabesetron hydrochloride] | 
26 | 204.7 | 216.3 |  |  | CCc1cc(C2=C(C(=O)O)N(c3ccccc3C(F)(F)F)S(=O)(=O)c3ccccc32)cc2c1OCO2 [Fandosentan potassium salt] | 
27 | 228.5 | 224.1 | 217.4 | 217.1 | Cc1oc(-c2ccccc2)nc1CCOc1ccc(C[C@H](Nc2ccccc2C(=O)c2ccccc2)C(=O)O)cc1 [Farglitazar] | 
28 |  |  |  | 183.6 | Cc1nc(-c2ccc(OCC(C)C)c(C#N)c2)sc1C(=O)O [Febuxostat] | 
29 |  | 159.6 |  |  | NC(=O)OCC(COC(N)=O)c1ccccc1 [Felbamate] | 
30 | 174.9 |  | 175 | 174.6 | COC(=O)Nc1nc2cc(Sc3ccccc3)ccc2[nH]1 [Fenbendazole] | 
31 |  | 198.4 |  | 192.8 | CC(C)OC(=O)C(C)(C)Oc1ccc(C(=O)c2ccc(Cl)cc2)cc1 [Fenofibrate] | 
32 |  | 189 |  | 189.8 | CCOC(=O)[C@H](C)Oc1ccc(Oc2nc3ccc(Cl)cc3o2)cc1 [Fenoxaprop-(2S)-ethyl] | 
33 |  | 189 | 189.9 | 189.5 | CCOC(=O)[C@@H](C)Oc1ccc(Oc2nc3ccc(Cl)cc3o2)cc1 [Fenoxaprop-P-ethyl] | 
34 |  | 189.1 | 190.2 | 189.3 | CCOC(=O)C(C)Oc1ccc(Oc2nc3ccc(Cl)cc3o2)cc1 (stereo not drawn) [Fenoxaprop-ethyl] | 
35 |  | 184.6 |  |  | CCOC(=O)NCCOc1ccc(Oc2ccccc2)cc1 [Fenoxycarb] | 
36 | 137 | 144.7 | 134 | 134.4 | CN(C)C(=O)Nc1ccccc1 [Fenuron] | 
